ChEMBL document CHEMBL1142050, “A two-state homology model of the hERG K+ channel: application to ligand binding” (Bioorg Med Chem Lett, 2005)

Assays:
[1] = target: T1, Voltage-gated inwardly rectifying potassium channel KCNH2 (Homo sapiens, UniProt Q12809); experiment: Inhibition of human voltage-gated potassium channel subunit Kv11.1 (ERG K+ channel) in open state; format: functional
[2] = target: T1, Voltage-gated inwardly rectifying potassium channel KCNH2; experiment: Inhibition of partially open human voltage-gated potassium channel subunit Kv11.1 (ERG K+ channel)

T1 sequence (Q12809 whole entry): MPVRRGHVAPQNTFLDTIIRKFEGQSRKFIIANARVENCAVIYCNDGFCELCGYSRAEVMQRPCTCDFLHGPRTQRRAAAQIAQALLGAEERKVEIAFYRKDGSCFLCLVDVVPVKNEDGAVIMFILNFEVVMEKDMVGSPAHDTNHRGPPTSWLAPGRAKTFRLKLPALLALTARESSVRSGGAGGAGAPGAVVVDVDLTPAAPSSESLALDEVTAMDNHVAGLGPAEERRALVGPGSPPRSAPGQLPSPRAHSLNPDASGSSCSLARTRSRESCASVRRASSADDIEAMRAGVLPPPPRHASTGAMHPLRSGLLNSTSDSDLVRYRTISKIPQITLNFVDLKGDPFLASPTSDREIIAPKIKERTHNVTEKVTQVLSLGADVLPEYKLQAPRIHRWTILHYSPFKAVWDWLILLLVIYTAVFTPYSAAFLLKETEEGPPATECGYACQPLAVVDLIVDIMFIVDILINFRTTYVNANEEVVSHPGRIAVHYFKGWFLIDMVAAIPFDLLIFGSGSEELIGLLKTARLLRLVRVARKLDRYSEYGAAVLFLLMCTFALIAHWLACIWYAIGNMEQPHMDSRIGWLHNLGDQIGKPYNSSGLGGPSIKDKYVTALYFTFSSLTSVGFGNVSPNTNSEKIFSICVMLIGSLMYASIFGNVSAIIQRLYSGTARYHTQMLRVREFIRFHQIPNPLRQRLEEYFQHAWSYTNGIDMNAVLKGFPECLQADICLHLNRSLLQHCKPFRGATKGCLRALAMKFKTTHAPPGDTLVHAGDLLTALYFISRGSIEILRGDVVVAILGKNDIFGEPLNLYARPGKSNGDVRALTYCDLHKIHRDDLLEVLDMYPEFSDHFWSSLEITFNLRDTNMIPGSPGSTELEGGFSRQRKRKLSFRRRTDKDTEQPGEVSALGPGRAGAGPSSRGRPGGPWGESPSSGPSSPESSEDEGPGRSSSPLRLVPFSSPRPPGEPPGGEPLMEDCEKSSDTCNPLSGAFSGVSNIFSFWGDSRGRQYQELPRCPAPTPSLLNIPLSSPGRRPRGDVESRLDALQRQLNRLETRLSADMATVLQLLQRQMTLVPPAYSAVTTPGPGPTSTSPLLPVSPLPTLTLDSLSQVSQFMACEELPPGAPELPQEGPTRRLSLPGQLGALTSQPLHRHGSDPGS

Row | Compound | IC50 [1] [µM] | IC50 [2] [nM]
1 | CN1CCN(CCCCN2C(=O)CN(/N=C/c3ccc(-c4ccc(Cl)cc4)o3)C2=O)CC1 | 0.562 | 
2 | CN(c1nccc(=O)[nH]1)C1CCN(c2nc3ccccc3n2Cc2ccc(F)cc2)CC1 [MIZOLASTINE] |  | 355
3 | C[C@@H]1CN(c2c(F)c(N)c3c(=O)c(C(=O)O)cn(C4CC4)c3c2F)C[C@H](C)N1 [SPARFLOXACIN] | 26.3 | 
